Reference: PubChem BioAssay (NCI)
Where “and” joins values, the source holds several entries; their conditions need not be identical. Equal values may be shown once.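 Cells were grown in 96-well plates and exposed to each compound for 48 hours at five concentrations; endpoints were interpolated linearly between bracketing concentrations, or set to the highest concentration if not reached. GI50 is the concentration that inhibits growth by half. TGI is the concentration that stops growth completely.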

Legend:
Assay in all cases: NCI tumour cell line growth inhibition, 48 h
SF-539 CNS = test system: SF-539 CNS
LOX IMVI melanoma = test system: LOX IMVI melanoma
786-0 renal = test system: 786-0 renal
OVCAR-5 ovarian = test system: OVCAR-5 ovarian
NCI-H226 lung = test system: NCI-H226 lung
RPMI-8226 leukemia = test system: RPMI-8226 leukemia
EKVX NSCLC = test system: EKVX NSCLC
NCI-H522 lung = test system: NCI-H522 lung
SNB-19 CNS = test system: SNB-19 CNS
NCI-H460 lung = test system: NCI-H460 lung

SMILES | TGI (SF-539 CNS) | TGI (LOX IMVI melanoma) | TGI (786-0 renal) | TGI (OVCAR-5 ovarian) | TGI (NCI-H226 lung) | TGI (RPMI-8226 leukemia) | TGI (EKVX NSCLC) | TGI (NCI-H522 lung) [µM] | TGI (SNB-19 CNS) [µM] | TGI (NCI-H460 lung) | GI50 (NCI-H226 lung) | GI50 (SF-539 CNS) [µM] | GI50 (LOX IMVI melanoma) [µM] | GI50 (786-0 renal) [µM] | GI50 (OVCAR-5 ovarian) | GI50 (RPMI-8226 leukemia) [µM] | GI50 (EKVX NSCLC) [µM] | GI50 (NCI-H522 lung) [µM] | GI50 (SNB-19 CNS) [µM] | GI50 (NCI-H460 lung)
O=C(/C=C/c1ccccc1O)c1ccccc1O | > 100 µM | > 100 µM | > 100 µM | > 100 µM | > 100 µM | > 100 µM | > 100 µM | > 100 | > 100 | > 100 µM | – | – | – | – | – | – | – | – | – | –
O=C(O)C1C2C=CC(O2)C1C(=O)NCc1ccccn1 (configuration not stated) | > 100 µM | > 100 µM | > 100 µM | > 100 µM | > 100 µM | > 100 µM | > 100 µM | > 100 | > 100 | > 100 µM | – | – | – | – | – | – | – | – | – | –
O=C1c2cccc(NCCCNCCO)c2C(=O)c2cccc(NCCCNCCO)c21 | 4.13 µM and 2.84 µM | 4.79 µM and 6.13 µM | 10.1 µM and 5.84 µM | 6.28 µM and 6.41 µM | 5.11 µM and 2.99 µM | 5.58 µM and 6.85 µM | 6.24 µM and 9.38 µM | 1.6 | 5.58 | 4 µM and 4.23 µM | 1.93 µM and 0.729 µM | – | – | – | – | – | – | – | – | –
COC(=O)c1cc2c(s1)C(=O)c1ccccc1-2 | > 100 µM | > 100 µM | > 100 µM | > 100 µM | > 100 µM | – | > 100 µM | > 100 | > 100 | > 100 µM | – | – | – | – | – | – | – | – | – | –
O=C(OC(CNc1cc(=O)n(Cc2ccccc2)c(=O)n1Cc1ccccc1)CN1CCCC1)c1ccccc1 (configuration not stated) | > 100 µM | > 100 µM | > 100 µM | > 100 µM | > 100 µM | > 100 µM | > 100 µM | > 100 | > 100 | > 100 µM | 81.8 µM | > 100 | > 100 | > 100 | > 100 µM | 29.3 | > 100 | > 100 | > 100 | > 100 µM
S=C(Nc1ccccc1)N(/N=C/C=C/c1ccccc1)c1nnc(-c2ccccc2)c(-c2ccccc2)n1 | > 100 µM | > 100 µM | > 100 µM | > 100 µM | > 100 µM | > 100 µM | > 100 µM | > 100 | > 100 | > 100 µM | – | – | – | – | – | – | – | – | – | –
N#CC(=C1C=CC(=NO)C=C1)c1ccccc1 | 3.37 µM | 6.25 µM | 9.91 µM | 5.03 µM | 7.47 µM | 1.83 µM | 21.4 µM | 4.68 | 9.35 | 6.11 µM | 2.35 µM | 0.92 | 1.17 | 1.69 | 2.53 µM | 0.348 | 5.31 | 1.02 | 3.73 | 1.3 µM
CC(=O)c1cccc(NC(=O)C(=O)NNc2n[nH]c(=S)n2N)c1 | 18.6 µM | 4.57 µM | 25.5 µM | 33.1 µM | 20.1 µM | 58.8 µM | 29 µM | 21 | 21.2 | 13.3 µM | – | – | – | – | – | – | – | – | – | –
O=C(CCn1[nH]c(=O)c(Cl)c(Cl)c1=O)NO | > 100 µM | > 100 µM | > 100 µM | > 100 µM | > 100 µM | > 100 µM | > 100 µM | > 100 | > 100 | > 100 µM | – | – | – | – | – | – | – | – | – | –
CC1(C)COC(c2cccnc2/C=N/O)=N1 | > 100 µM | > 100 µM | > 100 µM | > 100 µM | > 100 µM | – | > 100 µM | > 100 | > 100 | > 100 µM | – | – | – | – | – | – | – | – | – | –
O=C(Cc1ccc(/C=C/C(=O)c2ncc[nH]2)cc1)Nc1cc(F)c(F)c(F)c1 | 6.95 µM | 4.81 µM | 6.32 µM | 8.84 µM | 12.8 µM | 1.79 µM | > 25 µM | 8.01 | 9.93 | 11.7 µM | 4.83 µM | 3.56 | 1.56 | 3.08 | 4.58 µM | 0.665 | 8.45 | 3.46 | 4.07 | 3.31 µM
Cc1cc(I)cc(CN(C)CCCN2CCCCCCC2)c1O | 29.2 µM | 30.9 µM | 26.3 µM | 41.5 µM | 35 µM | 24.2 µM | 37.6 µM | 38.4 | 44.5 | 28.3 µM | 16.3 µM | 15.1 | 16.2 | 12.7 | 18.8 µM | 7.9 | 16 | 19.3 | 20.4 | 13.7 µM
[Cl][Hg][c]1cc(Br)cc(Br)c1 | 3.31 µM | 2.86 µM | 3.2 µM | 5.65 µM | 8.84 µM | 4.86 µM | 4.78 µM | 2.27 | 2.51 | 7.61 µM | 3.48 µM | 1.65 | 1.41 | 1.69 | 2.8 µM | 1.81 | 2.21 | 0.493 | 1.2 | 2.05 µM
O/N=C/C1C(OCc2ccccc2)C(OCc2ccccc2)C(OCc2ccccc2)CN1Cc1ccccc1 (configuration not stated) | > 100 µM | 29.4 µM and > 100 µM | 21.1 µM and > 100 µM | 57.3 µM and > 100 µM | 33.8 µM and 85.2 µM | > 100 µM | > 100 µM | > 100 | > 100 | 32.4 µM and 29.9 µM | 13.7 µM and 4.2 µM | – | – | – | 20 µM and 9.34 µM | – | – | – | – | 8.94 µM and 3.24 µM
CC(C)CCN1c2nc(Nc3cc(F)c(O)c(F)c3)ncc2N(C)C(=O)C1C (configuration not stated) | 21.8 µM | 20.8 µM | 52.9 µM | > 100 µM | 41.2 µM | 11.5 µM | > 100 µM | 22.4 | > 100 | 17 µM | 17.4 µM | 4.26 | 4.11 | 7.09 | 19.1 µM | 2.82 | 9.26 | 2.52 | 6.35 | 3.91 µM
O=c1c2sc(=S)n(-c3ccc(F)cc3)c2ncn1Cc1ccc(F)cc1F | > 100 µM | > 100 µM | > 100 µM | > 100 µM | > 100 µM | > 100 µM | > 100 µM | > 100 | > 100 | > 100 µM | > 100 µM | > 100 | > 100 | 80.5 | > 100 µM | > 100 | > 100 | > 100 | 75.8 | > 100 µM
NC(=Nc1c([N+](=O)[O-])cnc2ccccc12)N1CCOCC1 | > 100 µM | > 100 µM | > 100 µM | > 100 µM | > 100 µM | > 100 µM | > 100 µM | > 100 | > 100 | > 100 µM | – | – | – | – | – | – | – | – | – | –
